Experimental data reported in article PMC7882696, “Co-production of Xylooligosaccharides and Xylose From Poplar Sawdust by Recombinant Endo-1,4-β-Xylanase and β-Xylosidase Mixture Hydrolysis” (Frontiers in Bioengineering and Biotechnology, 2021).

What was measured:
Format in all cases: biochemical, Dictyoglomus thermophilum
Xln-DT [1] = tested on: T1, Xln-DT; test: glucose release, Michaelis-Menten; conditions: 0.2-10 g/L substrate
T1 construct: recombinant, pET-28a-xln-DT in E. coli BL21(DE3), heat treatment and Ni-NTA; ~55 kDa on SDS-PAGE
From the text: glucose release, Michaelis-Menten on Xln-DT

Xln-DT [2] = tested on: T1, Xln-DT; test: xylose release, Michaelis-Menten; conditions: 0.2-10 g/L substrate
From the text: xylose release, Michaelis-Menten on Xln-DT

Xln-DT [3] = tested on: T1, Xln-DT; test: pNP release at […] nm, Michaelis-Menten; conditions: 50 mM sodium phosphate pH 6.0, optimal temperature

Compound | Km (Xln-DT [3]) | also measured
OC[C@H]1O[C@@H](O[C@H]2[C@H](O)[C@@H](O)C(O)O[C@@H]2CO)[C@H](O)[C@@H](O)[C@@H]1O (some centres unmarked) [Cellobiose] | – | Km (Xln-DT [1]): 11000 µM
OC1OC[C@@H](O[C@@H]2OC[C@@H](O)[C@H](O)[C@H]2O)[C@H](O)[C@H]1O (some centres unmarked) [X2, Xylobiose] | – | Km (Xln-DT [2]): 930 µM
O=[N+]([O-])c1ccc(O[C@@H]2OC[C@@H](O)[C@H](O)[C@H]2O)cc1 [pNPX] | 1660 µM | –

More lines, main results first:

Km (Xln-DT [3]) | Compound | also measured
1020 µM | O=[N+]([O-])c1ccc(O[C@@H]2O[C@@H](CO)[C@H](O)[C@H]2O)cc1 [pNPA] | –
3670 µM | O=[N+]([O-])c1ccc(O[C@@H]2O[C@H](CO)[C@@H](O)[C@H](O)[C@H]2O)cc1 [pNPG] | –
